Legend:
IscS2 [1] = molecular target: T1, IscS2 (Methanosarcina acetivorans, UniProt Q8TME0); assay: sulfide release, methylene blue assay ([…] nm); format: biochemical; settings: 1 mM L-cysteine, 1 mM DTT, 50 mM Tris pH 7.5, 25 °C, with or without 50 μM PLP
T1 construct: gene iscS; full-length, N-terminal His6-tag (pET28a) cut with thrombin, E. coli Rosetta (DE3) pLacI; homodimer (84 kDa by SEC)

IscS2 [2] = molecular target: T1, IscS2; assay: UV-visible spectrum ([…] nm) and cysteine desulfurase activity with and without PLP; format: biochemical; settings: PLP reconstitution at pH 7.2, 25 °C; assay 50 mM Tris pH 7.5, 1 mM L-cysteine, 1 mM DTT, 50 μM PLP
[3] = molecular target: Methanosarcina acetivorans IscS2 (MA2718), reconstituted with PLP (Methanosarcina acetivorans); assay: SEC; IscS2^PLP (3.3 mg loaded) on HiPrep 16/60 Sephacryl S-200, 0.5 ml/min, 50 mM Tris pH 8.0, 150 mM NaCl, 2 mM DTT, 10% glycerol; calibrated with standard proteins; calculated 84 kDa

T1 sequence (Q8TME0 entry or part of it): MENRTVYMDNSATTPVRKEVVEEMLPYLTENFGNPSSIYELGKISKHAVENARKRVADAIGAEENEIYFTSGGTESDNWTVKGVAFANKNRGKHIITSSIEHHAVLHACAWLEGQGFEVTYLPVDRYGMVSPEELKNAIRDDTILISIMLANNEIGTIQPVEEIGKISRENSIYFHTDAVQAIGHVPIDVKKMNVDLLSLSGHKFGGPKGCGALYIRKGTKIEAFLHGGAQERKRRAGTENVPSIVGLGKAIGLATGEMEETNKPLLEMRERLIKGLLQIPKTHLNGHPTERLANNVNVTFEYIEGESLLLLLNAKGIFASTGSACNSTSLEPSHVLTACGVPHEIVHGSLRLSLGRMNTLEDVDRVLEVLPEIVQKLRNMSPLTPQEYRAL

Compound: N[C@@H](CS)C(=O)O [L-cysteine]
- sulfide release, methylene blue assay (670 nm) (IscS2 [1]): Purified IscS2 was able to remove sulfur from L-cysteine

Compound: Cc1ncc(COP(=O)(O)O)c(C=O)c1O [PLP]
- UV-visible spectrum (420 nm) and cysteine desulfurase activity with and without (IscS2 [2]): these results reveal that IscS2 is a PLP-dependent cysteine desulfurase

Compound: Methanosarcina acetivorans IscS2 (MA2718), reconstituted with PLP (enzyme)
- stoichiometry N [3]: 2

Reference: article PMC7585200, “Methanosarcina acetivorans contains a functional ISC system for iron-sulfur cluster biogenesis” (BMC Microbiology, 2020)
